# Measurements taken from patent publication US12655130B2 (ASSEMBLY BIOSCIENCES, INC., priority 2020, dated 2026).
# Tested on: HBV viral load (viral production from HepAD38 cells)
# Assay: Activity of test compounds on viral production from HepAD38 cells (viral load by qPCR of HBV core sequence)
# Assay type: cell-based
# Conditions: Hepatitis B virus, HePAD38, 120 h, viral load lowering, 5 days, qPCR of supernatant, read-out: VL HepAD38 EC50 range
# In short: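 EC50 and CC50 come from four-parameter logistic fits: HBV core DNA in supernatant by TaqMan qPCR against DNA standards, normalised to DMSO controls, and cell viability by CellTiter-Glo. Cells were plated at 50,000/well without tetracycline (2% FBS) and exposed to compounds (highest 10 μM) for 5 days, 37 °C.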
row,SMILES,EC50
1,"CC#Cc1cc(C2(O)CC3CC(c4ncn(C)c4C(=O)Nc4ccc(F)c(Cl)c4)CC3C2)n(C)n1 (stereo not drawn) [Example 56, N-(3-Chloro-4-fluorophenyl)-4-(5-hydroxy-5-(1-methyl-3-(prop-1-yn-1-yl)-1H-pyrazol-5-yl)octahydropentalen-2-yl)-1-methyl-1H-imidazole-5-carboxamide]",< 10 nM
2,"CCn1nc(C(F)F)cc1C1(O)CC2CC(c3ncn(C)c3C(=O)Nc3ccc(F)c(C#N)c3)CC2C1 (stereo not drawn) [Example 192, N-(3-Cyano-4-fluorophenyl)-4-(5-(3-(difluoromethyl)-1-ethyl-1H-pyrazol-5-yl)-5-hydroxyoctahydropentalen-2-yl)-1-methyl-1H-imidazole-5-carboxamide]",< 10 nM
3,"Cn1cnc(C2CC3CC(O)(C(F)(F)F)CC3C2)c1C(=O)Nc1ccc(F)c(Cl)c1 (stereo not drawn) [Example 12, N-(3-Chloro-4-fluorophenyl)-4-(5-hydroxy-5-(trifluoromethyl)octahydropentalen-2-yl)-1-methyl-1H-imidazole-5-carboxamide]",< 10 nM
4,"Cn1cnc(C2CC3CC(O)(c4c(C(F)F)cnn4C)CC3C2)c1C(=O)Nc1ccc(F)c(Cl)c1 (stereo not drawn) [Example 145, N-(3-Chloro-4-fluorophenyl)-4-(5-(4-(difluoromethyl)-1-methyl-1H-pyrazol-5-yl)-5-hydroxyoctahydropentalen-2-yl)-1-methyl-1H-imidazole-5-carboxamide]",< 10 nM
5,"CC(C)n1nccc1C1(O)CC2CC(c3ncn(C)c3C(=O)Nc3ccc(F)c(Cl)c3)CC2C1 (stereo not drawn) [Example 120, N-(3-chloro-4-fluorophenyl)-4-(5-hydroxy-5-(1-isopropyl-1H-pyrazol-5-yl)octahydropentalen-2-yl)-1-methyl-1H-imidazole-5-carboxamide]",< 10 nM
6,"Cn1cnc(C2CC3CC(N4CCCCC4)CC3C2)c1C(=O)Nc1ccc(F)c(Cl)c1 (stereo not drawn) [Example 46, 5-[-5-(1-Piperidinyl)-1,2,3,3a,4,5,6,6a-octahydropentalen-2-yl]-N-(3-chloro-4-fluorophenyl)-3-methyl-4-imidazolecarboxamide]",10 to 50 nM
7,"CN(C)c1cc(C2(O)CC3CC(c4ncn(C)c4C(=O)Nc4ccc(F)c(Cl)c4)CC3C2)n(C)n1 (stereo not drawn) [Example 199, N-(3-Chloro-4-fluorophenyl)-4-(5-(3-(dimethylamino)-1-methyl-1H-pyrazol-5-yl)-5-hydroxyoctahydropentalen-2-yl)-1-methyl-1H-imidazole-5-carboxamide]",< 10 nM
8,"Cn1cnc(C2CC3CC(O)(Cn4cccn4)CC3C2)c1C(=O)Nc1ccc(F)c(Cl)c1 (single isomer, unassigned) [Example 128, 4-(5-((1H-pyrazol-1-yl)methyl)-5-hydroxyoctahydropentalen-2-yl)-N-(3-chloro-4-fluorophenyl)-1-methyl-1H-imidazole-5-carboxamide]",< 10 nM
9,"CC(=O)N1CCn2c(nc(C3CC4CC(O)CC4C3)c2C(=O)Nc2ccc(F)c(Cl)c2)C1 (stereo not drawn) [Example 87, 7-acetyl-N-(3-chloro-4-fluorophenyl)-2-(5-hydroxyoctahydropentalen-2-yl)-5,6,7,8-tetrahydroimidazo[1,2-a]pyrazine-3-carboxamide]",< 10 nM
10,"Cn1cnc(C2CC3CC(O)(c4[nH]ncc4Cl)CC3C2)c1C(=O)Nc1ccc(F)c(Cl)c1 (stereo not drawn) [Example 143, 4-(5-(4-Chloro-1H-pyrazol-5-yl)-5-hydroxyoctahydropentalen-2-yl)-N-(3-chloro-4-fluorophenyl)-1-methyl-1H-imidazole-5-carboxamide]",< 10 nM
11,"Cc1cn[nH]c1C1(O)CC2CC(c3ncn(C)c3C(=O)Nc3ccc(F)c(Cl)c3)CC2C1 (stereo not drawn) [Example 135, N-(3-chloro-4-fluorophenyl)-4-(5-hydroxy-5-(4-methyl-1H-pyrazol-5-yl)octahydropentalen-2-yl)-1-methyl-1H-imidazole-5-carboxamide]",< 10 nM

# Same assay, conditions: viral load lowering, 5 days, qPCR of supernatant, read-out: VL HepAD38 EC50 range
row,SMILES,EC50
1,"CC(O)c1cc(C2(O)CC3CC(c4ncn(C)c4C(=O)Nc4ccc(F)c(Cl)c4)CC3C2)n(C)n1 (stereo not drawn) [Example 60, N-(3-Chloro-4-fluorophenyl)-4-(5-hydroxy-5-(3-(1-hydroxyethyl)-1-methyl-1H-pyrazol-5-yl)octahydropentalen-2-yl)-1-methyl-1H-imidazole-5-carboxamide]",< 10 nM
